Data from ChEMBL document CHEMBL1201862, “PubChem BioAssay data set” (2004).
Blank lines part the entries; values can stand above or below the compound they belong to. Calls of active or inactive are those of the source.

Columns and labels:
[1] = target: T1, Heat shock factor protein 1 (Mus musculus, UniProt P38532); assay: enhancement of HSF1-driven luciferase signal – cell-based, NIH3T3, luminescence, dose retest, confirmation (AID 435004); type: functional;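 also: stress induced by proteasome inhibitor MG132 added 30 min after compound; luciferase reporter driven by HSF1 response element in NIH3T3 cells; actives raise luminescence as potentiators of the MG132 stress response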
T1 sequence (P38532 whole entry): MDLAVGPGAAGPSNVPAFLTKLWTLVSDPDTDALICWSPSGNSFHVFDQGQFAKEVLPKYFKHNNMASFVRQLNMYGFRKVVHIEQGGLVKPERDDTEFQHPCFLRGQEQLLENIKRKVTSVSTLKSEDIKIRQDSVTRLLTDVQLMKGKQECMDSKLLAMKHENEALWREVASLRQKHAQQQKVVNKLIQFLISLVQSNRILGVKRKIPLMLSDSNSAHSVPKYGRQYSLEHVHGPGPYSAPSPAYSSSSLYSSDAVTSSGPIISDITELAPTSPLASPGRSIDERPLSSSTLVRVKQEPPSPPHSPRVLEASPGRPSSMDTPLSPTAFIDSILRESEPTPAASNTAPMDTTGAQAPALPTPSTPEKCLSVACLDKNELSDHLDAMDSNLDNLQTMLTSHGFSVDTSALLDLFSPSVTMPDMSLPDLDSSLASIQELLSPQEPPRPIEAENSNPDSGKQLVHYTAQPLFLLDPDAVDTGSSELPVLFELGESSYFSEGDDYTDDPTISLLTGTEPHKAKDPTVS

[2] = target: T2, Corticotropin-releasing factor receptor 2/Corticotropin-releasing factor-binding protein (Homo sapiens, UniProt P24387+Q13324); assay: activators of CRF receptor 2 with binding protein – uHTS hits, confirmation (AID 602473); type: functional; settings: read-out: EC50_Mean
T2 sequence (Q13324 whole entry): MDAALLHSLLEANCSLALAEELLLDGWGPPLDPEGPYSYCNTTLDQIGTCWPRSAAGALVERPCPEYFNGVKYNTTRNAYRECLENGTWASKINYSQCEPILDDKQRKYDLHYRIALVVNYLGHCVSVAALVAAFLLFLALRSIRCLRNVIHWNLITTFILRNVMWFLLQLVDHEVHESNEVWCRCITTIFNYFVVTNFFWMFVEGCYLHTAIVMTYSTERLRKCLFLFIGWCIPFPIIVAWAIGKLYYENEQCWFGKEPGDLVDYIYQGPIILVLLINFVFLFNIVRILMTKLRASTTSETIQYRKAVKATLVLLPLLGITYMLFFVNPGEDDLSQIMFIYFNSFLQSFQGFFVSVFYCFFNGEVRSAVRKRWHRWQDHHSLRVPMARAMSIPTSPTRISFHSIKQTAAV
T2 sequence (P24387 whole entry): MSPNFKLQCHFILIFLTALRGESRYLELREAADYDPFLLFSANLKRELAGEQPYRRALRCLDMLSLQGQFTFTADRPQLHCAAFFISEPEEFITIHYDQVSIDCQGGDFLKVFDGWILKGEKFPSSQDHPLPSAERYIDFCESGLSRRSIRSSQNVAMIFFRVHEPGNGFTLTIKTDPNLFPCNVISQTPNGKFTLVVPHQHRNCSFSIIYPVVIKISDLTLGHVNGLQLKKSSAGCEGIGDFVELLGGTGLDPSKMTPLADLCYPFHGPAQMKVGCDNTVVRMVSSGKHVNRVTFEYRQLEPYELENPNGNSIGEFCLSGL

[3] = target: T2, Corticotropin-releasing factor receptor 2/Corticotropin-releasing factor-binding protein; assay: Dose Response confirmation of uHTS hits for small molecule antagonists of the CRF-binding protein and CRF-R2 receptor complex.; type: functional; settings: read-out: IC50_Mean
[4] = non-specific 3'UTR reporter inhibition in Clone20-Shn3RL – cell-based, Renilla luciferase, cherry-picked, counter-screen for Shn3 inhibitor project, dose response (AID 624133); type: functional
[5] = reduction of Shn3 3'UTR-driven luciferase in osteoblasts – cell-based, Clone20 osteoblasts, firefly luciferase, cherry-picked, dose response (AID 624132); type: functional;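 also: firefly luciferase luminescence from reporter carrying the Shn3 3'UTR in osteoblasts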
[6] = loss of viability in HepG2 cells – cell-based, CellTiter-Glo, cherry-picked, cytotoxicity control for Shn3 inhibitor project, dose response (AID 624134); type: functional
[7] = Luminescence Cell-Based Dose Retest to Confirm Inhibitors of Cancer Stem Cells. [Related pubchem assays (depositor defined):AID2717, AID2721]; type: functional; settings: Homo sapiens
[8] = target: T3, Polyadenylate-binding protein 1 (Homo sapiens, UniProt P11940); assay: MLLE domain peptide-binding blockers, IC50 – biochemical, fluorescence polarization, FITC-PAM2 peptide, dose response (AID 602259); type: functional; settings: read-out: IC50_Mean
[9] = target: T3, Polyadenylate-binding protein 1; assay: MLLE binding blockers, Cy5 peptide tracer – biochemical, fluorescence polarization, Cy5-PAM2 peptide, secondary, miRNA deadenylation inhibitor project, dose response (AID 602260); type: functional; settings: read-out: IC50_Mean
[10] = NIH-3T3 fibroblast cytotoxicity, dose response, cytotoxicity control, cell-based, fluorescence, Alamar Blue, secondary assay (AID 2327); type: functional;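 also: NIH-3T3 mouse fibroblasts cultured with fluconazole at 8 µg/mL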
[11] = fluconazole-exposed Candida albicans growth modulators – fluorescence, retest, confirmation (AID 2467); type: functional, cell-based

T3 sequence (P11940 whole entry, the tested form may be a part): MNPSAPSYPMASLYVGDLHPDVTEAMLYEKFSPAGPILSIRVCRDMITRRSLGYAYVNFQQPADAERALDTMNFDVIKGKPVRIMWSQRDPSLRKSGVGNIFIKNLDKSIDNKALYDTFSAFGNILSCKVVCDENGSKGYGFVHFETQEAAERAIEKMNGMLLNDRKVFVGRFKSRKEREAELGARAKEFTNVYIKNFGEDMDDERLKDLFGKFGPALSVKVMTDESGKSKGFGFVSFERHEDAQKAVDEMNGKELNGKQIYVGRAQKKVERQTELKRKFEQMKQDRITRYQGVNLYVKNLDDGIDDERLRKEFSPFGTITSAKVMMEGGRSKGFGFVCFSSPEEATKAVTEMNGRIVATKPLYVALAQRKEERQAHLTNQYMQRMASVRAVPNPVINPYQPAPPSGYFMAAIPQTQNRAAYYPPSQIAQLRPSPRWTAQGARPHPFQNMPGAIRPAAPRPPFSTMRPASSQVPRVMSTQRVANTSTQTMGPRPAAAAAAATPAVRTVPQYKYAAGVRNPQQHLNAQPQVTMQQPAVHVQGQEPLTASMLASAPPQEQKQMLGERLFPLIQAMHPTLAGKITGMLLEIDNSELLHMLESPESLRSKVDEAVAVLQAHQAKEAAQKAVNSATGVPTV

- EC50 [1]: > 260 µM (inactive)
SMILES: NC(=O)CCN1CCN(CCOC2Cc3cc(Cl)ccc3Sc3ccccc32)CC1 (stereo not drawn)

- EC50 [1]: > 260 µM (inactive)
SMILES: Cc1ccc2[nH]c(SCC(=O)NCc3ccc(F)cc3)nc2c1

- EC50 [2]: > 53 µM (inactive)
- IC50 [3]: > 47.1 µM (inactive)
SMILES: CCN(CC)S(=O)(=O)c1cccc(C(=O)Nc2ccc3c(c2)OCO3)c1

SMILES: CC[C@H](C)[C@H]1O[C@]2(CC[C@@H]1C)C[C@@H]1C[C@@H](CC=C(C)[C@@H](O[C@H]3C[C@H](OC)[C@@H](O[C@H]4C[C@H](OC)[C@@H](O)[C@H](C)O4)[C@H](C)O3)[C@@H](C)C=CC=C3CO[C@@H]4[C@H](O)C(C)=C[C@@H](C(=O)O1)[C@]34O)O2
- AC50 [4]: 20.3 µM (active)
- AC50 [5]: 6.32 µM (active)
- AC50 [6]: 31.2 µM (active)
- AC50 [7]: 1.22 µM (active)

- EC50 [2]: > 53 µM (inactive)
- IC50 [3]: > 47.1 µM (inactive)
SMILES: CC1(C)CC(=O)C2=C(C1)N(Cc1ccco1)C(=O)C2(O)C(F)(F)F (stereo not drawn)

SMILES: O=C(NCc1cccnc1)c1ccc(-c2ccc(F)c(F)c2)c2ccoc12
- AC50 [4]: 4.19 µM (active)
- AC50 [5]: 3.48 µM (active)
- AC50 [6]: 6.48 µM (active)

- EC50 [2]: > 53 µM (inactive)
- IC50 [3]: > 47.1 µM (inactive)
SMILES: COC(=O)CC(NC(=O)c1ccc(C)cc1)c1ccc2c(c1)OCO2 (stereo not drawn)

- IC50 [8]: > 66 µM (inactive)
- IC50 [9]: > 66 µM (inactive)
SMILES: Cc1cc(C)n(N=C(S)NC2CCCCC2)c(=O)c1C#N

SMILES: O=[N+]([O-])c1cc2c(c(CSc3nnc(Nc4ccccc4)s3)c1)OCOC2
- AC50 [4]: 9.43 µM (active)
- AC50 [5]: 3.62 µM (active)
- AC50 [6]: 55.6 µM (active)

- EC50 [2]: > 53 µM (inactive)
- IC50 [3]: > 47.1 µM (inactive)
SMILES: O=C(NNC(=O)c1cccc(S(=O)(=O)N2CCCCC2)c1)c1ccccc1

- IC50 [8]: > 66 µM (inactive)
- IC50 [9]: > 66 µM (inactive)
SMILES: CCN1CCc2c(C#N)c(N3CCOCC3)nc(NCCO)c2C1

- EC50 [1]: > 260 µM (inactive)
SMILES: COc1ccc(-c2cn3cc(C)ccc3n2)cc1OC

SMILES: O=C(NCCNC(=O)C(c1ccccc1)c1ccccc1)c1ccco1
- EC50 [10]: > 150 µM (inactive)
- EC50 [11]: > 38 µM (not active)

- EC50 [2]: > 53 µM (inactive)
- IC50 [3]: > 47.1 µM (inactive)
SMILES: COc1ccc(CCNC(=O)COc2ccc(N(C)S(=O)(=O)c3ccc(C)cc3)cc2)cc1OC

- EC50 [2]: > 53 µM (inactive)
- IC50 [3]: 4.06 µM (active)
SMILES: COC(=O)c1ccc(CSc2nc3ccccc3c(=O)n2-c2cccc(OC)c2)o1

- EC50 [1]: 32 µM (active)
SMILES: Cn1cc([N+](=O)[O-])c(C(=O)Nc2ccc(-c3nc4ccccc4[nH]3)cc2)n1

- EC50 [1]: > 260 µM (inactive)
SMILES: Cc1cc(F)ccc1NCc1cc2c(cc1[N+](=O)[O-])OCO2
